The record followed here is PMC4310642 (Journal of Medicinal Chemistry, 2014).

The target in assay [1] is PKCδ C1b domain N7R/S10R/L20R triple mutant (Mus musculus, UniProt P28867, L250R/N237R/S240R). The assay can be described thus: Competitive [20-3H]PDBu binding to GST-C1b domain, N7R/S10R/L20R.
For assay [2], the target named is PKCδ C1b domain N7R mutant (Mus musculus, UniProt P28867, N237R). The assay is described as follows: Competitive [20-3H]PDBu binding to GST-C1b domain, N7R.
For assay [3], the target named is PKCδ C1b domain P11R mutant (Mus musculus, UniProt P28867, P241R). The assay is described as follows: Competitive [20-3H]PDBu binding to GST-C1b domain, P11R.
The subject of assay [4] is PKCδ C1b domain S10R mutant. It counts as binding.

Each structure is given as a SMILES string.

Chain of PKCδ C1b domain N7R/S10R/L20R triple mutant (P28867 230-280 N237R/S240R/L250R): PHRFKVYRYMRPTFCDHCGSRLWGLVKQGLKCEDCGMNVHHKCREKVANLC
Chain of PKCδ C1b domain P11R mutant (P28867 230-280 P241R): as the sequence (P28867 230-280 N237R/S240R/L250R) above, with R8N, R11S, P12R, R21L counted along it
Chain of PKCδ C1b domain N7R mutant (P28867 230-280 N237R): as the sequence (P28867 230-280 N237R/S240R/L250R) above, with R11S, R21L counted along it

Turning to `CC(C)CC(C/C=C1\CC(CO)(COC(=O)C(C)(CO)CO)OC1=O)CC(C)C` (stereo not shown) [13-E], the “reduction in binding affinity with the triple mutant N7R/S10R/L20R compared to the wild-type” value in assay [1] is recorded as “no further loss of affinity”.
Consider `CCCC(=O)O[C@@H]1[C@@H](C)[C@@]2(O)[C@@H](C=C(CO)C[C@]3(O)C(=O)C(C)=C[C@@H]23)[C@@H]2C(C)(C)[C@]12OC(=O)CCC` [PDBu, phorbol 12,13-dibutyrate], for which the “binding to N7R weaker than to the wild-type δC1B domain” value in assay [2] is “about 5 fold”. Moreover, in assay [3], the “binding to P11R weaker than to the wild-type δC1B domain” value is “about 5 fold”. Also, the “binding to S10R compared to the wild-type δC1B domain” value in assay [4] was “essentially the same”.
